Patent US20140275094A1, “METHOD FOR TREATING PULMONARY ARTERIAL HYPERTENSION IN A PATIENT NOT HAVING IDIOPATHIC PULMONARY FIBROSIS” (GILEAD SCIENCES, INC., priority 2012, published 2014)
One block for each compound: values may come before it.

Key:
[1] = Post-marketing spontaneous and clinical serious adverse event hepatic data (LEAP), 2 years after first approval; assay type: in vivo, human
Description: During the 2-year period since ambrisentan was first approved, the vast majority of patient exposure had been in the U.S. through Letairis Education and Access Program (LEAP). As of 14 Jun. 2009, a total of 6,622 patients had enrolled in LEAP and received at least one shipment of ambrisentan. Approximately half of the patients for whom duration of therapy was available received ambrisentan for a period of at least 6 months, resulting in a total of 3,847 patient-years of exposure. Exposure duration is depicted in FIG. 3 showing LEAP patients by exposure duration.
A total of 120 post-marketing spontaneous reports were identified for the 2-year period (15 Jun. 2007 through 14 Jun. 2009) where 119 reports were received via LEAP in the U.S. and the remaining one was received from Germany (outside of LEAP). As of 31 Mar. 2009, there were […] of exposure to ambrisentan. All reports were actively followed up in accordance with Gilead Drug Safety procedures to obtain all important information needed to assess a potential relationship with ambrisentan therapy, particularly laboratory data, medical history and concurrent medications. All reports included potential alternative causes for the hepatic events which are unrelated to ambrisentan therapy, such as right-sided heart failure due to underlying PAH, other co-morbidities or concurrent medications.
Of the 120 spontaneous reports, 55 reports were medically-confirmed suspected adverse reaction reports. A total of 28 cases were considered “clinically significant hepatic events” which are defined as (1) ALT and/or AST increases >3×ULN, (2) serum total bilirubin increases >2×ULN, (3) any hepatic event associated with potential signs/symptoms of hepatic disease, or (4) any clinically significant hepatic event term (e.g., liver failure). These cases included 24 reports of serum aminotransferase (ALT/AST) increases >3×ULN; 3 reports of elevated serum total bilirubin>2×ULN; and 1 report of elevated serum aminotransferases with signs and symptoms, but AST and ALT values were not provided. Of these 28 cases, there were 3 reports of both elevated ALT/AST>3×ULN and serum total bilirubin>2×ULN. However, these reports included probable alternate causes of the hepatic events such as sickle cell disease in a patient with baseline serum total bilirubin of ‘7.7’, suspected gall bladder disease in a patient who developed increased serum total bilirubin (5×ULN) and alkaline phosphatase (3.3×ULN) 11 days before an increase in ALT to 3.1×ULN, and documented cardiogenic shock and right-sided heart failure due to PAH.
There were 7 drug-related serious adverse event (SAE) reports from clinical studies which had evidence of alternative causes of the hepatic events or were poorly documented. Six of the reports were considered clinically significant, including one case where ALT/AST was >3×ULN and serum total bilirubin>2×ULN. However, probable causes of the hepatic events in this case included concurrent right heart failure, diagnosed after the patient admitted missing several doses of ambrisentan and 3-4 days of sildenafil and furosemide and with a baseline serum total bilirubin of 1.7×ULN.
The estimated post-marketing incidence rate of hepatic events with ambrisentan in the U.S. during the 2-year post-marketing period is 1.8% (119/6622), detected through LEAP. This rate is consistent with the background rate of placebo-treated PAH patients in clinical trials evaluating ERAs which appeared to have an incidence rate of 2%-3% over a 12- to 24-week period.

[2] = test system: patients with IPF, with or without pulmonary hypertension (WHO Group 3); experiment: Randomized controlled study in idiopathic pulmonary fibrosis; assay type: in vivo
ETA receptor = target: T1, ETA receptor (Homo sapiens, UniProt P25101); details: read-out: affinity for the ETA receptor; cited from earlier work
T1 sequence (P25101 21-427): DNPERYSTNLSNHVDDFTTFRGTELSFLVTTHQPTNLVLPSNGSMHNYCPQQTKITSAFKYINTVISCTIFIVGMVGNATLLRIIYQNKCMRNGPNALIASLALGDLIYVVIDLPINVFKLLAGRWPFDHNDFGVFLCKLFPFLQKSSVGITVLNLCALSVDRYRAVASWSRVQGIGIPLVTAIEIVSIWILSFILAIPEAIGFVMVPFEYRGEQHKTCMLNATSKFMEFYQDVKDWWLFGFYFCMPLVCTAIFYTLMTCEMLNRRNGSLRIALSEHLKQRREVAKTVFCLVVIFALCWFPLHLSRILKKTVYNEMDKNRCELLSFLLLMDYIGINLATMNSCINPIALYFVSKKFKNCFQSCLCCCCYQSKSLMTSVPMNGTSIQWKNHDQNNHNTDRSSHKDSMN

P-glycoprotein (Pgp) = target: T2, P-glycoprotein (Pgp) (Homo sapiens, UniProt P08183); experiment: Inhibition of Pgp, transfected MDCKII cells; assay type: cell-based; details: human, transfected MDCKII cells
T2 construct: expressed in transfected cells; host or cells: Madin-Darby canine kidney strain II (MDCKII)
Description: (§1) Inhibition constants (IC50) were measured for human bile salt export pump (BSEP), sodium taurocholate cotransporting polypeptide (NTCP), multidrug resistance protein 2 (MRP2), P-glycoprotein (Pgp), breast cancer resistance protein (BCRP), organic anion-transporting polypeptide 1B1 (OATP1B1), and OATP1B3 in transfected cell-lines. Known inhibitors were used as positive controls.

[3] = target: T3, breast cancer resistance protein (BCRP) (Homo sapiens, UniProt Q9UNQ0); experiment: Inhibition of BCRP, transfected MDCKII cells; assay type: cell-based; details: human, transfected MDCKII cells
T3 construct: expressed in transfected cells; host or cells: MDCKII
T3 sequence (Q9UNQ0 1-655): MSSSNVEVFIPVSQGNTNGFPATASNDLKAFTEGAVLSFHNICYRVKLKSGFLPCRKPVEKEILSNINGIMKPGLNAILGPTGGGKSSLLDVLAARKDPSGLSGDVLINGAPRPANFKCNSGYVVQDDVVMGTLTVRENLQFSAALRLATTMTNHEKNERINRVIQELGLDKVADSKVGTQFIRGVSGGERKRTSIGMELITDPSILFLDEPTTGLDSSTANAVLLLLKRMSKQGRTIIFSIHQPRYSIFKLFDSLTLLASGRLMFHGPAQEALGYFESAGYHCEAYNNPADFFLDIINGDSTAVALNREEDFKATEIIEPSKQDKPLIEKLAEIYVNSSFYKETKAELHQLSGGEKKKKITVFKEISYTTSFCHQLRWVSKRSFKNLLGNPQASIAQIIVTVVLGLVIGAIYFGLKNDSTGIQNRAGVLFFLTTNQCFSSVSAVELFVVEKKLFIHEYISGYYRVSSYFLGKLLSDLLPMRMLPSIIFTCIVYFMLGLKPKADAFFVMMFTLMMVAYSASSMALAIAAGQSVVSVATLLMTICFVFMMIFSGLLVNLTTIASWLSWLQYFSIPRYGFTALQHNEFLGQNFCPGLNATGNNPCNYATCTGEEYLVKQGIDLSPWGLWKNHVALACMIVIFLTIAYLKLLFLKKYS
Description: as §1

[4] = among the 28 clinically significant cases

T2 sequence (P08183 whole entry): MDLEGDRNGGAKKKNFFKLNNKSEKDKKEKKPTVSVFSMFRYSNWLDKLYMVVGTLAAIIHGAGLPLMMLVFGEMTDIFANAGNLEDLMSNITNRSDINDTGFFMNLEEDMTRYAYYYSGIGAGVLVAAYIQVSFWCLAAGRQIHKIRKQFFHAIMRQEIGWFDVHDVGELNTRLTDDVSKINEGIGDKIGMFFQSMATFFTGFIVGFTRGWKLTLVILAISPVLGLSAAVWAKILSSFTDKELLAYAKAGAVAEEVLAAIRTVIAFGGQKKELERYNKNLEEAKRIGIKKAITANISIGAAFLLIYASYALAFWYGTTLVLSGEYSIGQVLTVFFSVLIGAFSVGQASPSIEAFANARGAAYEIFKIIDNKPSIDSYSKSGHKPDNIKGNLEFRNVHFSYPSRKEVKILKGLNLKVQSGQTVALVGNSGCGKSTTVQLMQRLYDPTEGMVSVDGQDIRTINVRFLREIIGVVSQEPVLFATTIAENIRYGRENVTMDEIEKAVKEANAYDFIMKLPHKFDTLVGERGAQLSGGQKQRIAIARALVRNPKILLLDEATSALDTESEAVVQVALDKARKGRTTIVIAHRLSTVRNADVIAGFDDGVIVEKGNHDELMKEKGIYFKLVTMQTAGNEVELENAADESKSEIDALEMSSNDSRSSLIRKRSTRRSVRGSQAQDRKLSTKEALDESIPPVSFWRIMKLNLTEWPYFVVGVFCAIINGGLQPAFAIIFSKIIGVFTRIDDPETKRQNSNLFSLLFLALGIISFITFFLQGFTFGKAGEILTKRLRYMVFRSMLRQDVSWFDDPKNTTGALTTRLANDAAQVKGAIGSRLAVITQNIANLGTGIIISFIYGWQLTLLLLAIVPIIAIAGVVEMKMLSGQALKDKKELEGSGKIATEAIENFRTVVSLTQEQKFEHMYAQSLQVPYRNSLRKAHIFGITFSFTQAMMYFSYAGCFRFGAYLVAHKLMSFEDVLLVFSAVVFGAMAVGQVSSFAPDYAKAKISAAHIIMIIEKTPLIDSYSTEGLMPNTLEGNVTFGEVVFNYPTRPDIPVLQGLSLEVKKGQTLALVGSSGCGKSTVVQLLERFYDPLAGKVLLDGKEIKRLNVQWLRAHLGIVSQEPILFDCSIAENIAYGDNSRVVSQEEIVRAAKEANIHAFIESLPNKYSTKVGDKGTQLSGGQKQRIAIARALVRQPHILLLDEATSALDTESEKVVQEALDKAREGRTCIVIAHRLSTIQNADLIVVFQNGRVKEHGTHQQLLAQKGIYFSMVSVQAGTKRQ

Structure (SMILES): COC(c1ccccc1)(c1ccccc1)[C@H](Oc1nc(C)cc(C)n1)C(=O)O [Ambrisentan, (25)-2-[(4,6-dimethylpyrimidin-2-yl)oxy]-3-methoxy-3,3-diphenylpropanoic acid]
post-marketing spontaneous reports of hepatic events, number ([1]; 15 Jun. 2007 through 14 Jun. 2009): 120 | estimated post-marketing incidence rate of hepatic events ([1]; U.S., 2-year post-marketing period, LEAP (119/6622)): 1.8% | reports of both elevated ALT/AST >3×ULN and serum total bilirubin >2×ULN, number [1, 4]: 3 | reports of elevated serum total bilirubin >2×ULN, number [1, 4]: 3 | reports of serum aminotransferase (ALT/AST) increases >3×ULN, number [1, 4]: 24 | drug-related serious adverse event (SAE) reports from clinical studies, number ([1]; hepatic events): 7 | cases considered clinically significant hepatic events, number ([1]; of 55 medically-confirmed suspected adverse reaction reports): 28 | incidence of hepatic events (adverse events and elevated aminotransferase levels) ([1]; post-marketing data): approximately 2% | patients who died ([2]; ambrisentan n=329, placebo 4%): 8% | patients with a respiratory hospitalization ([2]; ambrisentan n=329, placebo 6%): 13% | patients with a decrease in FVC/DLCO ([2]; ambrisentan n=329, placebo 12%): 17% | risk of disease progression or death versus placebo ([2]; study terminated after 34 weeks): greater risk of disease progression or death | Ki (ETA receptor): ~0.012 nM

IC50 (P-glycoprotein (Pgp)): > 100 µM | IC50 [3]: > 100 µM
Structure (SMILES): COc1ccccc1Oc1c(NS(=O)(=O)c2ccc(C(C)(C)C)cc2)nc(-c2ncccn2)nc1OCCO [Bosentan]
